Results taken from patent US20210145000A1, “WEED CONTROL FROM APPLICATIONS OF PYRIDINE CARBOXYLIC ACID HERBICIDES AND ACETYL CoA CARBOXYLASE (ACCase) INHIBITORS” (Dow AgroSciences LLC, priority 2018, published 2021).

Experiments:
Experiment in all cases: Postemergence herbicidal activity, greenhouse, visual injury
Assay type in all cases: in vivo
[1] = system: winter rape (Brassica napus, BRSNW); conditions: post-emergence, read-out: Effect (% visual injury) Obs
Experimental: (§1) Seeds of the desired test plant species were planted in Sun Gro MetroMix® 306 planting mixture, which typically has a pH of 6.0 to 6.8 and an organic matter content of about 30 percent, in plastic pots with a surface area of 103.2 square centimeters (cm^2). When required to ensure good germination and healthy plants, a fungicide treatment and/or other chemical or physical treatment was applied. The plants were grown for 7-36 days (d) in a greenhouse with an approximate 14-hour (h) photoperiod which was maintained at about 23° C. during the day and 22° C. during the night. Nutrients and water were added on a regular basis and supplemental lighting was provided with overhead metal halide 1000-Watt lamps as necessary. The plants were employed for testing when they reached the second or third true leaf stage.
(§2) An emulsifiable concentrate (EC) formulation containing Compound 1 at 100 gai/L was prepared by combining Compound 1 with 1-butyl-2-pyrrolidinone (Tamisolve NxG; 360.5 g/L), benzyl acetate (544.6 g/L) and Agnique MBL 520L surfactant (52.9 g/L). […] The concentrated stock solution was diluted with an aqueous mixture of 1.5% v/v of Agri-dex crop oil concentrate to provide the appropriate application rates. Compound requirements are based upon a 12 milliliter (mL) application volume at a rate of 187 liters per hectare (L/ha). Spray solutions of the experimental compound mixtures were prepared by adding the stock solutions to the appropriate amount of dilution solution to form a 12 mL spray solution in two-way combinations. Formulated compounds were applied to the plant material with an overhead Mandel track sprayer equipped with 8002E nozzles calibrated to deliver 187 L/ha over an application area of 0.503 square meters (m^2) at a spray height of 18 inches (43 centimeters (cm)) above average plant canopy. Control plants were sprayed in the same manner with the solvent blank. Application rates for component (a) are in g ae/ha, and application rates for component (b) are in g ai/ha.
(§3) The treated plants and control plants were placed in a greenhouse as described above and watered by sub-irrigation to prevent wash-off of the test compounds. After 20-22 d, the condition of the test plants as compared with that of the control plants was determined visually and scored on a scale of 0 to 100 percent where 0 corresponds to no injury and 100 corresponds to complete kill. […] The Colby method was used to determine the herbicidal effects expected from the mixtures.

maize (Zea mays, ZEAMX) = conditions: post-emergence, read-out: Effect (% visual injury) Obs
Experimental: (§4) The plants were grown for 7-36 days (d) in a greenhouse with an approximate 14-hour (h) photoperiod which was maintained at about 23° C. during the day and 22° C. during the night. Nutrients and water were added on a regular basis and supplemental lighting was provided with overhead metal halide 1000-Watt lamps as necessary. The plants were employed for testing when they reached the second or third true leaf stage.
(§5) Spray solutions of the experimental compound mixtures were prepared by adding the stock solutions to the appropriate amount of dilution solution to form a 12 mL spray solution in two-way combinations. […] Control plants were sprayed in the same manner with the solvent blank. Application rates for component (a) are in g ae/ha, and application rates for component (b) are in g ai/ha.
as §3

[2] = system: large crabgrass (Digitaria sanguinalis, DIGSA); conditions: post-emergence, read-out: Effect (% visual injury) Obs
Experimental: as §4, §5, §3

[3] = system: barnyardgrass (Echinochloa crus-galli, ECHCG); conditions: post-emergence, read-out: Effect (% visual injury) Obs
Experimental: as §4, §5, §3

[4] = system: grain sorghum (Sorghum vulgare, SORVU); conditions: post-emergence, read-out: Effect (% visual injury) Obs
Experimental: as §4, §5, §3

[5] = system: sunflower (Helianthus annuus, HELAN); conditions: post-emergence, read-out: Effect (% visual injury) Obs
Experimental: as §4, §5, §3

[6] = system: velvetleaf (Abutilon theophrasti, ABUTH); conditions: post-emergence, read-out: Effect (% visual injury) Obs
Experimental: as §4, §5, §3

[7] = system: winter wheat (Triticum aestivum, TRZAW); conditions: post-emergence, read-out: Effect (% visual injury) Obs
Experimental: as §4, §5, §3

[8] = system: wild buckwheat (Polygonum convolvulus, POLCO); conditions: Fallopia convolvulus, post-emergence, read-out: Effect (% visual injury) Obs
Experimental: as §4, §5, §3

[9] = system: wild oat (Avena fatua, AVEFA); conditions: post-emergence, read-out: Effect (% visual injury) Obs
Experimental: as §4, §5, §3

[10] = system: rice (Oryza sativa, ORYSA); conditions: post-emergence, read-out: Effect (% visual injury) Obs
Experimental: as §4, §5, §3

[11] = system: giant foxtail (Setaria faberi, SETFA); conditions: post-emergence, read-out: Effect (% visual injury) Obs
Experimental: as §4, §5, §3

[12] = system: wild pansy (Viola tricolor, VIOTR); conditions: post-emergence, read-out: Effect (% visual injury) Obs
Experimental: as §4, §5, §3

[13] = system: pigweed (Amaranthus retroflexus, AMARE); conditions: post-emergence, read-out: Effect (% visual injury) Obs
Experimental: as §4, §5, §3

[14] = system: blackgrass (Alopecurus myosuroides, ALOMY); conditions: post-emergence, read-out: Effect (% visual injury) Obs
Experimental: as §4, §5, §3

[15] = system: common lambsquarters (Chenopodium album L., CHEAL); conditions: post-emergence, read-out: Effect (% visual injury) Obs
Experimental: as §4, §5, §3

[16] = system: soybean (Glycine max, GLXMA); conditions: post-emergence, read-out: Effect (% visual injury) Obs
Experimental: as §4, §5, §3

[17] = system: poinsettia (Euphorbia heterophylla, EPHHL); conditions: Fluazifop-butyl 105 g ai/ha
Experimental: as §1, §2, §3

[18] = system: chickweed (Stellaria media, STEME); conditions: post-emergence, read-out: Effect (% visual injury) Obs
Experimental: as §1, §2, §3

CCCCOC(=O)[C@@H](C)Oc1ccc(Oc2ccc(C#N)cc2F)cc1 [Cyhalofop-butyl]
90%: pest or weed control at 180 g/ha [9] | pest or weed control at 180 g/ha [11]
95%: plant injury at 180 g/ha (maize (Zea mays, ZEAMX)) | plant injury at 180 g/ha [4]
85%: pest or weed control at 180 g/ha [2]
0%: plant injury at 180 g/ha [1] | plant injury at 180 g/ha [5] | pest or weed control at 180 g/ha [6] | plant injury at 180 g/ha [7] | pest or weed control at 180 g/ha [8] | plant injury at 180 g/ha [10] | pest or weed control at 180 g/ha [12] | pest or weed control at 180 g/ha [13]
100%: pest or weed control at 180 g/ha [3]

CCOC(=O)[C@@H](C)Oc1ccc(Oc2cnc3cc(Cl)ccc3n2)cc1 [Quizalofop-P-ethyl]
0%: pest or weed control at 75 g/ha [15] | plant injury at 75 g/ha [5] | pest or weed control at 75 g/ha [6] | plant injury at 75 g/ha [16] | pest or weed control at 75 g/ha [8] | pest or weed control at 75 g/ha [12] | pest or weed control at 75 g/ha [13]
98%: pest or weed control at 75 g/ha [9]
100%: plant injury at 75 g/ha (maize (Zea mays, ZEAMX)) | pest or weed control at 75 g/ha [2] | pest or weed control at 75 g/ha [14] | pest or weed control at 75 g/ha [3] | plant injury at 75 g/ha [4] | plant injury at 75 g/ha [10] | pest or weed control at 75 g/ha [11]
99%: plant injury at 75 g/ha [7]

CCOC(=O)[C@@H](C)Oc1ccc(Oc2nc3ccc(Cl)cc3o2)cc1 [Fenoxaprop-P-ethyl]
0%: plant injury at 46 g/ha ([1]; Fenoxaprop-P-ethyl 46 g ai/ha) | pest or weed control at 46 g/ha ([14]; Fenoxaprop-P-ethyl 46 g ai/ha) | pest or weed control at 46 g/ha ([15]; Fenoxaprop-P-ethyl 46 g ai/ha) | plant injury at 46 g/ha ([5]; Fenoxaprop-P-ethyl 46 g ai/ha) | pest or weed control at 46 g/ha ([6]; Fenoxaprop-P-ethyl 46 g ai/ha) | plant injury at 46 g/ha ([7]; Fenoxaprop-P-ethyl 46 g ai/ha) | pest or weed control at 46 g/ha ([8]; Fenoxaprop-P-ethyl 46 g ai/ha) | pest or weed control at 46 g/ha ([12]; Fenoxaprop-P-ethyl 46 g ai/ha)
95%: pest or weed control at 46 g/ha ([9]; Fenoxaprop-P-ethyl 46 g ai/ha)
100%: plant injury at 46 g/ha (maize (Zea mays, ZEAMX); Fenoxaprop-P-ethyl 46 g ai/ha) | pest or weed control at 46 g/ha ([2]; Fenoxaprop-P-ethyl 46 g ai/ha) | pest or weed control at 46 g/ha ([3]; Fenoxaprop-P-ethyl 46 g ai/ha) | pest or weed control at 46 g/ha ([11]; Fenoxaprop-P-ethyl 46 g ai/ha)

CCCCOC(=O)[C@@H](C)Oc1ccc(Oc2ccc(C(F)(F)F)cn2)cc1 [Fluazifop-butyl]
100%: plant injury at 105 g/ha (maize (Zea mays, ZEAMX)) | pest or weed control at 105 g/ha [3]
95%: pest or weed control at 105 g/ha [2] | pest or weed control at 105 g/ha [9]
0%: Effect (% visual injury) Obs [17] | plant injury at 105 g/ha [1] | pest or weed control at 105 g/ha [18] | pest or weed control at 105 g/ha [6] | pest or weed control at 105 g/ha [8] | pest or weed control at 105 g/ha [12] | pest or weed control at 105 g/ha [13]
85%: plant injury at 105 g/ha [10]
90%: plant injury at 105 g/ha [7]
20%: pest or weed control at 105 g/ha [14]
97%: pest or weed control at 105 g/ha [11]

COC(=O)C(C)Oc1ccc(Oc2ccc(Cl)cc2Cl)cc1 (centres unmarked) [Diclofop-methyl]
0%: plant injury at 280 g/ha [1] | pest or weed control at 280 g/ha [18] | pest or weed control at 280 g/ha [15] | plant injury at 280 g/ha [5] | pest or weed control at 280 g/ha [6] | plant injury at 280 g/ha [7] | pest or weed control at 280 g/ha [8] | pest or weed control at 280 g/ha [12] | pest or weed control at 280 g/ha [13]
60%: pest or weed control at 280 g/ha [11]
100%: pest or weed control at 280 g/ha [3]
40%: plant injury at 280 g/ha [10]

CCc1cc(C)cc(CC)c1-c1c(OC(=O)C(C)(C)C)n2n(c1=O)CCOCC2 [Pinoxaden]
100%: pest or weed control ([3]; Pinoxaden 30 g ai/ha) | plant injury ([4]; Pinoxaden 30 g ai/ha)
10%: plant injury (maize (Zea mays, ZEAMX); Pinoxaden 30 g ai/ha) | pest or weed control ([2]; Pinoxaden 30 g ai/ha)
99%: plant injury ([10]; Pinoxaden 30 g ai/ha)
0%: pest or weed control at 30 g/ha ([18]; Pinoxaden 30 g ai/ha) | pest or weed control ([15]; Pinoxaden 30 g ai/ha) | plant injury ([5]; Pinoxaden 30 g ai/ha) | pest or weed control ([6]; Pinoxaden 30 g ai/ha) | plant injury ([16]; Pinoxaden 30 g ai/ha) | plant injury ([7]; Pinoxaden 30 g ai/ha) | pest or weed control ([8]; Pinoxaden 30 g ai/ha) | pest or weed control ([11]; Pinoxaden 30 g ai/ha) | pest or weed control ([12]; Pinoxaden 30 g ai/ha) | pest or weed control ([13]; Pinoxaden 30 g ai/ha)
95%: pest or weed control ([9]; Pinoxaden 30 g ai/ha)
